Reference: PubChem BioAssay (NCI)
Where “and” joins values, the source holds several entries; their conditions need not be identical. Equal entries are not always repeated.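 Exposure lasted 48 hours, with cells grown in 96-well plates and compounds tested at five concentrations. GI50 marks 50% less growth. At the TGI there is no net growth.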

What was measured:
Assay in all cases: NCI-60 cell line screen, 48 h
[1] = tested on: SK-MEL-28 melanoma
[2] = tested on: SF-268 CNS
[3] = tested on: OVCAR-4 ovarian
[4] = tested on: HL-60(TB) leukemia
[5] = tested on: 786-0 renal
[6] = tested on: UO-31 renal
[7] = tested on: HCC-2998 colon
[8] = tested on: HOP-92 NSCLC
[9] = tested on: MCF7 breast
[10] = tested on: HS 578T breast

Row | Compound | TGI [1] [µM] | TGI [2] | TGI [3] [µM] | TGI [4] [µM] | TGI [5] [µM] | TGI [6] | TGI [7] [µM] | TGI [8] [µM] | TGI [9] | GI50 [1] [µM] | GI50 [2] [µM] | GI50 [4] | GI50 [5] | GI50 [6] | GI50 [8] [µM] | GI50 [7] [µM] | GI50 [10] [µM] | TGI [10] [µM] | GI50 [3] [µM] | GI50 [9] [µM]
1 | c1cnc2c(c1)-n1cccc1C1(CCCCC1)NN2 | > 100 | > 100 µM | > 100 | > 100 | > 100 | 79.9 µM | > 100 | – | – | – | – | – | – | – | – | – | – | – | – | –
2 | O=C1c2ccccc2-c2nc3ccncc3n21 | > 100 | > 100 µM | > 100 | > 100 | > 100 | > 100 µM | > 100 | > 100 | > 100 µM | – | – | – | – | – | – | – | – | – | – | –
3 | COc1cc2c(/C=C3\C(=O)Nc4ccccc43)c[nH]c2cc1C | 20.3 | > 100 µM | – | 4.45 | 12.6 | > 40.8 µM | 0.167 | 22.3 | > 82.1 µM | 0.021 | 0.861 | 0.494 µM | < 0.0218 µM | 2.87 µM | 1.54 | < 0.0179 | < 0.0229 | 32.1 | – | –
4 | Cc1c(C)c([N+](=O)[O-])c2c(c1N)C(=O)c1ccccc1C2=O | > 100 | > 100 µM | – | > 100 | > 100 | > 100 µM | > 100 | > 100 | – | – | – | – | – | – | – | – | – | – | – | –
5 | O=C1c2cccc3cccc(c23)C(=O)N1CCCCCN1CCN(CCN=c2cc3n(-c4ccc(Cl)cc4)c4ccccc4nc-3cc2Nc2ccc(Cl)cc2)CC1 | > 50 | > 50 µM | 17.3 | 21.3 | 30.7 | – | 31.4 | 19.7 | 38.4 µM | 18.9 | 23.1 | 6.91 µM | 9.6 µM | – | 7.32 | 8.93 | 36.8 | > 50 | 6.22 | 8.24
6 | CCC[CH2][Sn-]([CH2]CCC)([CH2]CCC)[O]C(=O)C(C)C | 0.329 | 0.333 µM | 0.196 | 0.304 | 0.228 | 0.312 µM | 0.329 | 0.162 | – | 0.182 | 0.144 | 0.111 µM | 0.109 µM | 0.158 µM | 0.037 | 0.164 | 0.354 | 1.92 | 0.0538 | –
7 | O=C1CC23CCCCCCCCCCC2(C1)CC(=O)C3 (stereo not drawn) | > 100 | > 100 µM | – | 39.2 | > 100 | 61.2 µM | > 100 | 51.8 | – | – | – | – | – | – | – | – | – | – | – | –
8 | Cc1ccccc1NC(=O)CSc1nnc(-c2ccc(N=Cc3ccc(Cl)cc3)cc2)o1 | > 100 | > 100 µM | > 100 | > 100 | > 100 | > 100 µM | – | – | – | – | – | – | – | – | – | – | – | – | – | –
9 | COC1(OC)C2(Cl)C3=CCCC=C3C1(Cl)C(Cl)=C2Cl | > 100 | > 100 µM | > 100 | 33.2 | > 100 | 69 µM | > 100 | 70.1 | – | – | – | – | – | – | – | – | – | – | – | –
10 | Cc1cccc(C)c1NC(=O)C(=O)Cc1nc2ccccc2s1 | > 100 | > 100 µM | > 100 | > 100 | > 100 | > 100 µM | > 100 | > 100 | – | – | – | – | – | – | – | – | – | – | – | –
11 | COc1cc(N2C(=O)[C@H](Cl)C2c2ccc(SC)cc2)cc(OC)c1OC (stereo partly drawn) | – | > 100 µM | > 100 | 0.703 | 1.83 | – | > 100 | > 100 | > 100 µM | – | 0.0841 | 0.142 µM | 0.0456 µM | – | 0.214 | 0.235 | 0.101 | > 100 | 0.0647 | 0.0356
12 | C=C1C(=O)O[C@@H]2/C=C(/C)[C@@H](OC(C)=O)C/C=C(\C)C(O)[C@@H](OC(=O)/C(C)=C\C)C12 (stereo partly drawn) | 32.1 | > 100 µM | > 100 | 49.6 | 29.7 | – | 55.4 | 50.3 | > 100 µM | – | – | – | – | – | – | – | – | > 100 | – | –
13 | COC(=O)C1CC(c2ccc(OC)c(OC)c2)OC1=O (mixture of isomers) | > 100 | > 100 µM | > 100 | > 100 | > 100 | > 100 µM | > 100 | > 100 | – | – | – | – | – | – | – | – | – | – | – | –
14 | OCC(O)C(O)C(O)C(/C=N\Nc1ncnc2c(Br)cc(Br)cc12)=N/Nc1ncnc2c(Br)cc(Br)cc12 (stereo not drawn) | – | 11.9 µM and > 100 µM | – | > 100 | – | 54.2 µM and > 100 µM | – | – | 37.4 µM and > 100 µM | – | – | 6.47 µM and 2.8 µM | 2.73 µM and 5.76 µM | 21.7 µM and > 100 µM | – | – | – | > 100 | – | –
15 | COc1cc(O)ccc1C(=S)SC | > 100 | > 100 µM | > 100 | > 100 | > 100 | > 100 µM | – | > 100 | > 100 µM | – | – | – | – | – | – | – | – | 98.5 | – | –
16 | COC(=O)C1C=CCC2CCCCC21N1CCCC1 (stereo not drawn) | > 100 | > 100 µM | > 100 | 49.1 | > 100 | > 100 µM | > 100 | > 100 | – | – | – | – | – | – | – | – | – | – | – | –
17 | COc1cc2c(cc1OCCNC(=O)/C=C1\C[C@H]3C=Nc4cc(OCc5ccccc5)c(OC)cc4C(=O)N3C1)N=C[C@@H]1CCCN1C2=O | 46.3 | 7.03 µM | 65.5 | – | 16.8 | 66.1 µM | – | – | 9.2 µM | 18.1 | 2.18 | – | 3.68 µM | 22.9 µM | – | – | 5.7 | 25.2 | 19.7 | 2.62
18 | Oc1ccc(Cl)cc1C=Nc1cnc2ccccc2c1 | > 100 | > 100 µM | > 100 | 34.9 | > 100 | > 100 µM | – | > 100 | > 100 µM | – | – | – | – | – | – | – | – | > 100 | – | –
19 | O=c1c(Cc2ccc3c(c2)OCO3)nnc2sc(-c3cc(F)c(Cl)cc3Cl)nn12 | > 100 | > 100 µM | > 100 | – | > 100 | > 100 µM | – | 88.4 | > 100 µM | 32.2 | 41.7 | – | 17.2 µM | 50.2 µM | 23 | – | – | – | 59.2 | 38.9
20 | O=C1NC(O)n2c(=O)[nH]c(=O)n21 (stereo not drawn) | > 100 | > 100 µM | > 100 | > 100 | > 100 | > 100 µM | > 100 | > 100 | – | – | – | – | – | – | – | – | – | – | – | –
